Measured values from patent US10870647B2, “Imidazopyridine derivative, method for preparing same, and pharmaceutical composition containing same as active ingredient for preventing or treating cancer” (DAEGU-GYEONGBUK MEDICAL INNOVATION FOUNDATION, priority 2016, dated 2020).

Columns and labels:
Assay in all cases: Kinase selectivity, scanMAX Kinase assay panel (DiscoverX), % control at 1 uM
Assay type in all cases: binding
[1] = target: T1, scanMAX Kinase assay panel (Homo sapiens, UniProt Q06418); conditions: TYRO3; 1 uM; read-out: Percent Control (%)
T1 construct: purchased DiscoverX
T1 sequence (Q06418 41-890): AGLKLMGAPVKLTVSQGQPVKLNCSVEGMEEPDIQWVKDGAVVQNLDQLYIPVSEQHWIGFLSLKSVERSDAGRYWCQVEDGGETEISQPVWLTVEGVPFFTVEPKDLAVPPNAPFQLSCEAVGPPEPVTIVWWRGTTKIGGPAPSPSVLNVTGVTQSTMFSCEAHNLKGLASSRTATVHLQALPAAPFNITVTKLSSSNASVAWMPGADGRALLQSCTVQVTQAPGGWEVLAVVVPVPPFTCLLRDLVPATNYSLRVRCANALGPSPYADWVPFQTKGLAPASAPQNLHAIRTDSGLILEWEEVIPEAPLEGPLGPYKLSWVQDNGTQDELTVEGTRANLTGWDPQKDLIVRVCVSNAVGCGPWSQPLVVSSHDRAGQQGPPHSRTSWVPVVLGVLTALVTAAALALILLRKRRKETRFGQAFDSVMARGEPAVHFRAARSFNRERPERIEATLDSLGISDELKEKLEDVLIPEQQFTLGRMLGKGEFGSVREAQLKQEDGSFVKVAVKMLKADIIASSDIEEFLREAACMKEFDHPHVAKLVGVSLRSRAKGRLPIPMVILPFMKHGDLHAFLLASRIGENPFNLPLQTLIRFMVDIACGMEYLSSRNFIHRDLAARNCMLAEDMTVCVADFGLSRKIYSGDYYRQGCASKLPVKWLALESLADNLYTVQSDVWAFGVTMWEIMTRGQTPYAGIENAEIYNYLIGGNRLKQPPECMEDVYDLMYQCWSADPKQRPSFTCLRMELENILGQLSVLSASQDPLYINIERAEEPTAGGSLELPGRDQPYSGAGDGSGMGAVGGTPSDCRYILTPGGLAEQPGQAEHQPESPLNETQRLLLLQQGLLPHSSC
Outline: (§1)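 Single-point screen at 1 uM compound in DMSO. Lower % control means stronger inhibition, with the cutoff for activity set at <35%.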

[2] = target: T2, scanMAX Kinase assay panel (Homo sapiens, UniProt Q6XUX3); conditions: RIPK5; 1 uM; read-out: Percent Control (%)
T2 construct: purchased DiscoverX
T2 sequence (Q6XUX3 1-929): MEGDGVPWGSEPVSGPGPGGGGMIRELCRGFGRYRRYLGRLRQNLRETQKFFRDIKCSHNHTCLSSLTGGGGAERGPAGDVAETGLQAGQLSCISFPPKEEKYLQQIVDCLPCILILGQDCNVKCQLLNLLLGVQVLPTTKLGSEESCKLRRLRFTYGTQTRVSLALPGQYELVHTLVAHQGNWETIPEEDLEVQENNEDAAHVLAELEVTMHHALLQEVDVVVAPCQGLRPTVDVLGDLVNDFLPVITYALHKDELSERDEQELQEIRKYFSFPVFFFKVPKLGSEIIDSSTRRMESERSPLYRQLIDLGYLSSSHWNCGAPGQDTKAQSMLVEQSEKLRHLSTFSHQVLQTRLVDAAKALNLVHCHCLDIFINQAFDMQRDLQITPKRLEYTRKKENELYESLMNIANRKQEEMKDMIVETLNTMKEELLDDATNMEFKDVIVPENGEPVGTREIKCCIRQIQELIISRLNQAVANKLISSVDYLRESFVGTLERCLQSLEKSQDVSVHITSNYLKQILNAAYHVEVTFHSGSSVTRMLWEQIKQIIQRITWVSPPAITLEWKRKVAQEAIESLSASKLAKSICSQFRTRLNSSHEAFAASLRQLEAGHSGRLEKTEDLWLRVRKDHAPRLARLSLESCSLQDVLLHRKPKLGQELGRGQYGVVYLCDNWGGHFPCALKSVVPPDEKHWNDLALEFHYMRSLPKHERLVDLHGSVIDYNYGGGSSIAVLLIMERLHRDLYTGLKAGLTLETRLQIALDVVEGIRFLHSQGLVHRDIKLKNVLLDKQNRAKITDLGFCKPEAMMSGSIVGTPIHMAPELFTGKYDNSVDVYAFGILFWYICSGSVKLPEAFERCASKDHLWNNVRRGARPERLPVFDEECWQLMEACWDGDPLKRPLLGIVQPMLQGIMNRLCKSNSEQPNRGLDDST
Outline: as §1

[3] = target: T3, scanMAX Kinase assay panel (Homo sapiens, UniProt Q8NI60); conditions: ADCK3; 1 uM; read-out: Percent Control (%)
T3 construct: purchased DiscoverX
T3 sequence (Q8NI60 163-647): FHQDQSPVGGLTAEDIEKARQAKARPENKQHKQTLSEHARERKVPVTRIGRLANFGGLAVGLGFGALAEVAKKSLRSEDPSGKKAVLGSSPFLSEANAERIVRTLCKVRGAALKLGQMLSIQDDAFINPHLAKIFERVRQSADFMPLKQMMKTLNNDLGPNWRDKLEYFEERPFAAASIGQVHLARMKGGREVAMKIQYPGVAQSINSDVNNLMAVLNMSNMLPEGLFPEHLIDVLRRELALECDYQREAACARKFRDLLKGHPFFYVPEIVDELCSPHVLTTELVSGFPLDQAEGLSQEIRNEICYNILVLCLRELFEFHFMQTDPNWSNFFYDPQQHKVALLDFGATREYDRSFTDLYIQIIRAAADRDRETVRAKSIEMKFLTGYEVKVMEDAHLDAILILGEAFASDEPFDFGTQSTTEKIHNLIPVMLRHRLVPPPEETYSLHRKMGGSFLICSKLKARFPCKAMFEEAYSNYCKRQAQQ
Outline: as §1

[4] = target: T4, scanMAX Kinase assay panel (Homo sapiens, UniProt Q9Y2U5); conditions: MAP3K2; 1 uM; read-out: Percent Control (%)
T4 construct: purchased DiscoverX
T4 sequence (Q9Y2U5 1-619): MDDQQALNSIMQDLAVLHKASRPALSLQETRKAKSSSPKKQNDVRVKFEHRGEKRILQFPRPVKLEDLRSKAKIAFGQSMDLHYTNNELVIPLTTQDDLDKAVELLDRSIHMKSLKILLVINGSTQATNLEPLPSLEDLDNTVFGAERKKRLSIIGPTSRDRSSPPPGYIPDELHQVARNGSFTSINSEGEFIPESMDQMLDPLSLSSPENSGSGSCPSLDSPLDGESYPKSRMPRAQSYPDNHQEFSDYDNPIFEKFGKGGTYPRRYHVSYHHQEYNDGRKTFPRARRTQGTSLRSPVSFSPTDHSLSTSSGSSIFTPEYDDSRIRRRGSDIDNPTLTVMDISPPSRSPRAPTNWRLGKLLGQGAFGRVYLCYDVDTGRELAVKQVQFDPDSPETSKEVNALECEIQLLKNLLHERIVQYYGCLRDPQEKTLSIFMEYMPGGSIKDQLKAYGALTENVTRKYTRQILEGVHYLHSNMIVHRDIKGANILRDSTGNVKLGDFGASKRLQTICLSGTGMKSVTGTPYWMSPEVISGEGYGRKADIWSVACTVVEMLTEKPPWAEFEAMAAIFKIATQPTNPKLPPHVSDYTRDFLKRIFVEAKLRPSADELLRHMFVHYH
Outline: as §1

Row | SMILES | remaining binding at 1 µM [1] [%] | remaining binding at 1 µM [2] [%] | remaining binding at 1 µM [3] [%] | remaining binding at 1 µM [4] [%]
1 | Cc1ccc(NC(=O)C2(C(=O)Nc3ccc(F)cc3)CC2)cc1C#Cc1cnc2c(Nc3cnn(C(C)C)c3)cccn12 [Example 78] | 95 | 79 | 100 | 100
2 | Cc1cn(-c2cc(NC(=O)c3ccc(C)c(C#Cc4cnc5c(Nc6cnn(C)c6)cccn45)c3)cc(C(F)(F)F)c2)cn1 [Example 12, 4-methyl-N-(3-(4-methyl-1H-imidazol-1-yl)-5-(trifluoromethyl)phenyl)-3-((8-((1-methyl-1H-pyrazol-4-yl)amino)imidazo[1,2-a]pyridin-3-yl)ethynyl)benzamide] | 42 | 100 | 93 | 84
3 | Cc1ccc(C(=O)Nc2ccc(CN3CCN(C)CC3)c(C(F)(F)F)c2)cc1C#Cc1cnc2c(Nc3cnn(C)c3)cccn12 [Example 1, 4-methyl-3-((8-((1-methyl-1H-pyrazol-4-yl)amino)imidazo[1,2-a]pyridin-3-yl)ethynyl)-N-(4-((4-methylpiperazin-1-yl)methyl)-3-(trifluoromethyl)phenyl)benzamide] | 21 | 41 | 100 | 1
